The record followed here is EP0013144A1, “Substituted diphenylamine derivatives, compositions and herbicidal uses thereof, and processes for their preparation” (ICI AUSTRALIA LIMITED, priority 1978, dated 1980).

The test system of one experiment is Ipomea purpurea. The experiment in a line: Pre-emergence herbicidal test, fibre trays (Example 33). The experiment is classed as in vivo. The note with it: 2.0 kg/ha, after 21 days. The method, boiled down: (§1)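 Herbicidal damage is rated relative to untreated plants on a 0 (0–20%) to 5 (complete kill) scale. Young potted plants are sprayed and assessed at 14 days; seeds sown in fibre trays receive a soil-surface spray under a thin fresh soil layer and are assessed at 21 days.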
For `COC(=O)C(C)Oc1ccc(N(C)c2ccc(Cl)cc2[N+](=O)[O-])cc1` (centres unmarked) [Compound 27], the “herbicidal damage, Ip” value is 0 (0 is 0 to 20% damage).

The test system of another experiment is Amaranthus retroflexus. The description is as above. The experiment is classed as in vivo. The note with it: 2.0 kg/ha, after 21 days. The method, boiled down: as §1
On to `COC(=O)C(C)Oc1ccc(N(C)c2ccc(Cl)cc2[N+](=O)[O-])cc1` (centres unmarked) [Compound 27], for which the “herbicidal damage, Am” value is 0 (0 is 0 to 20% damage).

Another experiment relates to Senecio vulgaris. The description is as above. The experiment is classed as in vivo. The note with it: 2.0 kg/ha, after 21 days. In outline: as §1
In the case of `COC(=O)C(C)Oc1ccc(N(C)c2ccc(Cl)cc2[N+](=O)[O-])cc1` (centres unmarked) [Compound 27], the “herbicidal damage, Sn” value turned out to be 1.

In the next experiment the test system is Polygonum aviculare. The experiment is described as above. The experiment is classed as in vivo. The note with it: 2.0 kg/ha, after 21 days. The method, boiled down: as §1
On to `COC(=O)C(C)Oc1ccc(N(C)c2ccc(Cl)cc2[N+](=O)[O-])cc1` (centres unmarked) [Compound 27], for which the “herbicidal damage, Pi” value is on record as 0 (0 is 0 to 20% damage).

Another experiment relates to Chenopodium album. The description is as above. The experiment is classed as in vivo. The note with it: 2.0 kg/ha, after 21 days. The method, boiled down: as §1
As for `COC(=O)C(C)Oc1ccc(N(C)c2ccc(Cl)cc2[N+](=O)[O-])cc1` (centres unmarked) [Compound 27], the “herbicidal damage, Ca” value is 0 (0 is 0 to 20% damage).

The subject of another experiment is Mustard. Description: Pre-emergence herbicidal activity (Example 31). The experiment is classed as in vivo. The note with it: 1 kg/ha, after three weeks. The method, boiled down: (§2)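 Ratings run from 0 (0–25% damage) to 3 (75–99% kill), with 3+ meaning complete kill, assessed visually three weeks after spraying. Treatment was applied to soil right after sowing, before germination was triggered by overhead watering in the glasshouse.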
For `COC(=O)C(C)Oc1ccc(N(C)c2ccc(Cl)cc2[N+](=O)[O-])cc1` (centres unmarked) [Compound 27], the “damage to plants, Ms” value is on record as 0 (0 represents from 0 to 25% damage).

Still in this experiment, the particulars now being: 5 kg/ha, after three weeks.
For `COC(=O)C(C)Oc1ccc(N(C)c2ccc(Cl)cc2[N+](=O)[O-])cc1` (centres unmarked) [Compound 27], the “damage to plants, Ms” value is recorded as 0 (0 represents from 0 to 25% damage).

A further experiment concerns Japanese millet. Description: Pre-emergence herbicidal activity (Example 31). The experiment is classed as in vivo. The note with it: 1 kg/ha, after three weeks. The method, boiled down:
as §2
As for `COC(=O)C(C)Oc1ccc(N(C)c2ccc(Cl)cc2[N+](=O)[O-])cc1` (centres unmarked) [Compound 27], the “damage to plants, Jm” value amounted to 1.

The same experiment, now with this note: 5 kg/ha, after three weeks.
For `COC(=O)C(C)Oc1ccc(N(C)c2ccc(Cl)cc2[N+](=O)[O-])cc1` (centres unmarked) [Compound 27], the “damage to plants, Jm” value is 3 (3 represents 75 to 99% kill).

In the next experiment the test system is Sunflower. Description: Pre-emergence herbicidal activity (Example 31). The experiment is classed as in vivo. The note with it: 1 kg/ha, after three weeks. The method, boiled down:
as §2
As to `COC(=O)C(C)Oc1ccc(N(C)c2ccc(Cl)cc2[N+](=O)[O-])cc1` (centres unmarked) [Compound 27], the “damage to plants, Sf” value is reported as 0 (0 represents from 0 to 25% damage).

Still in this experiment, the particulars now being: 5 kg/ha, after three weeks.
As for `COC(=O)C(C)Oc1ccc(N(C)c2ccc(Cl)cc2[N+](=O)[O-])cc1` (centres unmarked) [Compound 27], the “damage to plants, Sf” value is 0 (0 represents from 0 to 25% damage).

For a further experiment, the system named is Ipomea. The experiment in a line: Pre-emergence herbicidal activity (Example 31). The experiment is classed as in vivo. The note with it: 1 kg/ha, after three weeks. The method, boiled down: as §2
Take `COC(=O)C(C)Oc1ccc(N(C)c2ccc(Cl)cc2[N+](=O)[O-])cc1` (centres unmarked) [Compound 27]: the “damage to plants, Ip” value was 0 (0 represents from 0 to 25% damage).

Still in this experiment, the particulars now being: 5 kg/ha, after three weeks.
As to `COC(=O)C(C)Oc1ccc(N(C)c2ccc(Cl)cc2[N+](=O)[O-])cc1` (centres unmarked) [Compound 27], the “damage to plants, Ip” value is given as 0 (0 represents from 0 to 25% damage).

Another experiment concerns Maize. The experiment in a line: Post-emergence herbicidal test, young pot plants (Example 33). The note with it: 2.0 kg/ha, after 14 days. In kind it is in vivo. Details: key: 0 is 0 to 20% damage; 5 is complete kill. On the procedure: (§3) The compounds were formulated for test by mixing an appropriate amount with 5 ml of an emulsion prepared by diluting 160 ml of a solution containing 21.S g per litre of "Span" 80 and 78.2 g per litre of "Tween" 20 in methylcyclohexanone to 500 ml with water. "Span" 80 is a Trade Mark for a surface-active agent comprising sorbitan monolaurate. "Tween" 20 is a Trade Mark for a surface-active agent comprising a condensate of sorbitan monolaurate with 20 molar proportions of ethylene oxide. Each 5 ml emulsion containing a test compound was'then diluted to 40 ml with water and sprayed on to young pot plants (post-emergence test) of the species named in Table 5 below. Damage to test plants was assessed after 14 days on a scale of 0 to 5 where 0 is 0 to 20% damage and 5 is complete kill. In a test for pre-emergence herbicidal activity, seeds of the test plants were sown in a shallow slit formed in the surface of soil in fibre trays. The surface was then levelled and sprayed, and fresh soil then spread thinly over the sprayed surface. Assessment of herbicidal damage was carried out after 21 days using the same scale of 0 to 5 as the post-emergence test. In both cases the degree of herbicidal damage was assessed by comparison with untreated control plants. A dash (-) means that no experiment was carried out.
For the molecule `COC(=O)C(C)Oc1ccc(N(C)c2ccc(Cl)cc2[N+](=O)[O-])cc1` (centres unmarked) [Compound 27], the “damage to test plants, Mz” value is 5.

In another experiment the test system is Rice. Described as above. In kind it is in vivo. Set-up: key: 0 is 0 to 20% damage; 5 is complete kill. The note with it: 2.0 kg/ha, after 14 days. On the procedure: as §3
Turning to `COC(=O)C(C)Oc1ccc(N(C)c2ccc(Cl)cc2[N+](=O)[O-])cc1` (centres unmarked) [Compound 27], the “damage to test plants, Rc” value worked out at 4.

The test system of another experiment is Rape. Described as above. The experiment is classed as in vivo. The note with it: 2.0 kg/ha, after 14 days. The method, boiled down:
as §1
As to `COC(=O)C(C)Oc1ccc(N(C)c2ccc(Cl)cc2[N+](=O)[O-])cc1` (centres unmarked) [Compound 27], the “damage to test plants, Rp” value was 0 (0 is 0 to 20% damage).

For a further experiment, the system named is Senecio vulgaris. The description is as above. In kind it is in vivo. The note with it: 2.0 kg/ha, after 14 days. The method, boiled down:
as §1
With `COC(=O)C(C)Oc1ccc(N(C)c2ccc(Cl)cc2[N+](=O)[O-])cc1` (centres unmarked) [Compound 27], the “damage to test plants, Sn” value was found to be 1.

The test system of the next experiment is Polygonum aviculare. The experiment is described as above. In kind it is in vivo. The note with it: 2.0 kg/ha, after 14 days. The method, boiled down:
as §1
Take `COC(=O)C(C)Oc1ccc(N(C)c2ccc(Cl)cc2[N+](=O)[O-])cc1` (centres unmarked) [Compound 27]: the “damage to test plants, Pi” value is recorded as 0 (0 is 0 to 20% damage).

Another experiment deals with Wheat. The experiment in a line: Pre-emergence herbicidal activity (Example 31). The experiment is classed as in vivo. Set-up: key: 0-3 scale: 0 = 0-25% damage, 3 = 75-99% kill, 3+ = 100% kill. The note with it: 1 kg/ha, after three weeks. In outline:
as §2
Turning to `COC(=O)C(C)Oc1ccc(N(C)c2ccc(Cl)cc2[N+](=O)[O-])cc1` (centres unmarked) [Compound 27], the “damage to plants, Wh” value is listed as 0 (0 represents from 0 to 25% damage).

Staying with this experiment, now noted: 5 kg/ha, after three weeks.
In the case of `COC(=O)C(C)Oc1ccc(N(C)c2ccc(Cl)cc2[N+](=O)[O-])cc1` (centres unmarked) [Compound 27], the “damage to plants, Wh” value amounted to 1.
